Measurements reported in US20150051206A1, “COMPOUNDS AND COMPOSITIONS AS C-KIT KINASE INHIBITORS” (IRM LLC, priority 2011, published 2015).

target: T1, c-kit (Homo sapiens, UniProt P10721); experiment: Mo7e cell proliferation assay (SCF dependent proliferation); type: cell-based; details: Table 1; Mo7e cells stimulated with human recombinant SCF, 48 hours; 1% FBS
T1 construct: human Mo7e cells which endogenously express c-kit; endogenous in cells; host or cells: human Mo7e cells (promegakaryocytic leukemia line), stimulated with human recombinant SCF
T1 sequence (P10721 26-976): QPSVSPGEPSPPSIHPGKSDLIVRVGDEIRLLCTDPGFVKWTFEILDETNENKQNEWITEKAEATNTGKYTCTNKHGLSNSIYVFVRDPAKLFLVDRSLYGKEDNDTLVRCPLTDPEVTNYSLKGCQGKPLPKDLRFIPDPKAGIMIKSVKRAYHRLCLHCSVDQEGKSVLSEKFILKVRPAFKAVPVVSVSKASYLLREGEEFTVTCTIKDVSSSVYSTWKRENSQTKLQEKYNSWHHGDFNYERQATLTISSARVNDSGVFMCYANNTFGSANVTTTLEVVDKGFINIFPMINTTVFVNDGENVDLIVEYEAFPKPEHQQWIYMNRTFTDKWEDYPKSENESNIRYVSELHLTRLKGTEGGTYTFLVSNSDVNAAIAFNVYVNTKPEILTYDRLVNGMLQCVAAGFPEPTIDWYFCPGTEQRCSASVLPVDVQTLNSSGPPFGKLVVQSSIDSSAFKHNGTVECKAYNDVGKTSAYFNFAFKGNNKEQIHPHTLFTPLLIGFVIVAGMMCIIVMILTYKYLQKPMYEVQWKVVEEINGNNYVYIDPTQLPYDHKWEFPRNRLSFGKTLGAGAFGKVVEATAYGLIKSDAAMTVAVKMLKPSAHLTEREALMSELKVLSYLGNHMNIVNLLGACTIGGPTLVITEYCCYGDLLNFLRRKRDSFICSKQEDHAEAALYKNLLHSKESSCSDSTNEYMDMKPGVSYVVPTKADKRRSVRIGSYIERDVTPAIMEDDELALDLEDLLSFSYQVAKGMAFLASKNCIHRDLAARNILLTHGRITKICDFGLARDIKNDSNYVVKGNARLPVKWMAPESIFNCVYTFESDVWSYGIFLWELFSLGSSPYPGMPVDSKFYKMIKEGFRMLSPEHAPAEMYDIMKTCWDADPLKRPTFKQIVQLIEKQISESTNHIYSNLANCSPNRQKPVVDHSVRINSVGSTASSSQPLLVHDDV
Description: Compounds of Formula (I) and Formula (II) provided herein were assayed to measure their capacity to inhibit c-kit and PDGFR kinases using the appropriate assay described below: c-Kit inhibition was evaluated using the Mo7e cell proliferation assay, and PDGFR inhibition was evaluated using the Rat A10 cell proliferation assay and the Human TG/HA-VSMC cell proliferation assay.
The compounds of Table 1 and Table 2 were tested for inhibition of SCF dependent proliferation using human Mo7e cells which endogenously express c-kit in a 384 well format. […] After 48 hours of incubation at 37° C., cell viability was measured by adding 25 uL of CellTiter Glo (Promega) to the cells and the luminescence was measured by a CLIPR CCD camera (Molecular Devices).
The IC50 value is given as that concentration of the test compound in question that provoke a response halfway between the baseline and maximum responses.

| IC50 [nM] | SMILES |
| --- | --- |
| 10 | Cc1ccc(Nc2noc(-c3ccccc3)n2)cc1NC(=O)c1cnc2ccccn12 [F20, N-{2-methyl-5-[(5-phenyl-1,2,4-oxadiazol-3-yl)amino]phenyl}imidazo[1,2-a]pyridine-3-carboxamide] |
| 6 | Cc1ccc(Nc2noc(-c3cscn3)n2)cc1NC(=O)c1cnc2ccccn12 [F15, N-(2-methyl-5-{[5-(1,3-thiazol-4-yl)-1,2,4-oxadiazol-3-yl]amino}phenyl)imidazo[1,2-a]pyridine-3-carboxamide] |
| 8 | Cc1ccc(Nc2noc(-c3ccccn3)n2)cc1NC(=O)c1cnc2ccccn12 [F21, N-(2-methyl-5-{[5-(pyridin-2-yl)-1,2,4-oxadiazol-3-yl]amino}phenyl)imidazo[1,2-a]pyridine-3-carboxamide] |
| 40 | Cc1ccc(Nc2noc(-c3ccnc(N4CCOCC4)c3)n2)cc1NC(=O)c1cnc2ccccn12 [F12, N-[2-methyl-5-({5-[2-(morpholin-4-yl)pyridin-4-yl]-1,2,4-oxadiazol-3-yl}amino)phenyl]imidazo[1,2-a]pyridine-3-carboxamide] |
| 29 | Cc1ccc(Nc2noc(-c3cccc(N4CCOCC4)c3)n2)cc1NC(=O)c1cnc2ccccn12 [F14, N-[2-methyl-5-({5-[3-(morpholin-4-yl)phenyl]-1,2,4-oxadiazol-3-yl}amino)phenyl]imidazo[1,2-a]pyridine-3-carboxamide] |
| 51 | Cc1ccc(-c2nc(Nc3ccccc3)no2)cc1NC(=O)c1cnc2ccccn12 [F1, N-(2-methyl-5-(3-(phenylamino)-1,2,4-oxadiazol-5-yl)phenyl)imidazo[1,2-a]pyridine-3-carboxamide] |
| 82 | Cc1ccc(Nc2noc(-c3ncccn3)n2)cc1NC(=O)c1cnc2ccccn12 [F19, N-(2-methyl-5-{[5-(pyrimidin-2-yl)-1,2,4-oxadiazol-3-yl]amino}phenyl)imidazo[1,2-a]pyridine-3-carboxamide] |
| 16 | Cc1ccc(-c2nc(-c3ccccc3)no2)cc1NC(=O)c1cnc2ccccn12 [F2, N-[2-methyl-5-(3-phenyl-1,2,4-oxadiazol-5-yl)phenyl]imidazo[1,2-a]pyridine-3-carboxamide] |
| 89 | Cc1ccc(-c2nc(-c3cccc(OC(F)(F)F)c3)no2)cc1NC(=O)c1cnc2ccccn12 [F6, N-(2-methyl-5-{3-[3-(trifluoromethoxy)phenyl]-1,2,4-oxadiazol-5-yl}phenyl)imidazo[1,2-a]pyridine-3-carboxamide] |

| SMILES | IC50 [nM] |
| --- | --- |
| Cc1ccc(-c2noc(-c3ccccn3)n2)cc1NC(=O)c1cnc2ccccn12 [F11, N-(2-methyl-5-(5-(pyridin-2-yl)-1,2,4-oxadiazol-3-yl)phenyl)imidazo[1,2-a]pyridine-3-carboxamide] | 75 |

same assay, conditions: Table 1; Mo7e cells stimulated with human recombinant SCF, 48 hours; 20% FBS (values marked *)

| IC50 [nM] | SMILES |
| --- | --- |
| 73 | Cc1ccc(-c2nc(-c3ccc4c(c3)CCO4)no2)cc1NC(=O)c1cnc2ccccn12 [F5, N-{5-[3-(2,3-dihydro-1-benzofuran-5-yl)-1,2,4-oxadiazol-5-yl]-2-methylphenyl}imidazo[1,2-a]pyridine-3-carboxamide] |
| 23 | Cc1ccc(-c2nc(-c3cnccc3C(F)(F)F)no2)cc1NC(=O)c1cnc2ccccn12 [F4, N-(2-methyl-5-{3-[4-(trifluoromethyl)pyridin-3-yl]-1,2,4-oxadiazol-5-yl}phenyl)imidazo[1,2-a]pyridine-3-carboxamide] |
| 66 | CCOc1cccc(-c2noc(-c3ccc(C)c(NC(=O)c4cnc5ccccn45)c3)n2)c1 [F8, N-{5-[3-(3-ethoxyphenyl)-1,2,4-oxadiazol-5-yl]-2-methylphenyl}imidazo[1,2-a]pyridine-3-carboxamide] |

same assay, conditions: Table 2; Mo7e cells stimulated with human recombinant SCF, 48 hours; 1% FBS

| IC50 [nM] | SMILES |
| --- | --- |
| 370 | Cc1ccc(-c2noc(-c3ccc(N4CCN(C)CC4)cc3)n2)cc1NC(=O)c1cnc2ccccn12 [F54, N-(2-methyl-5-{5-[4-(4-methylpiperazin-1-yl)phenyl]-1,2,4-oxadiazol-3-yl}phenyl)imidazo[1,2-a]pyridine-3-carboxamide] |
| 337 | Cc1ccc(-c2noc(CCn3ccnc3)n2)cc1NC(=O)c1cnc2ccccn12 [F57, N-(5-{5-[2-(1H-imidazol-1-yl)ethyl]-1,2,4-oxadiazol-3-yl}-2-methylphenyl)imidazo[1,2-a]pyridine-3-carboxamide] |
| 445 | Cc1ccc(-c2noc(Cn3ccnc3C)n2)cc1NC(=O)c1cnc2ccccn12 [F60, N-(2-methyl-5-{5-[(2-methyl-1H-imidazol-1-yl)methyl]-1,2,4-oxadiazol-3-yl}phenyl)imidazo[1,2-a]pyridine-3-carboxamide] |
| 232 | Cc1ccc(-c2noc(-c3nccn3C)n2)cc1NC(=O)c1cnc2ccccn12 [F49, N-{2-methyl-5-[5-(1-methyl-1H-imidazol-2-yl)-1,2,4-oxadiazol-3-yl]phenyl}imidazo[1,2-a]pyridine-3-carboxamide] |
| 280 | Cc1ccc(-c2noc(Cn3ccnc3)n2)cc1NC(=O)c1cnc2ccccn12 [F61, N-{5-[5-(1H-imidazol-1-ylmethyl)-1,2,4-oxadiazol-3-yl]-2-methylphenyl}imidazo[1,2-a]pyridine-3-carboxamide] |
| > 10000 | Cc1ccc(-c2nc(-c3ccncc3)no2)cc1NC(=O)c1cnc2ccccn12 [F70] |
| 269 | Cc1ccc(-c2noc(Cn3cncn3)n2)cc1NC(=O)c1cnc2ccccn12 [F63, N-{2-methyl-5-[5-(1H-1,2,4-triazol-1-ylmethyl)-1,2,4-oxadiazol-3-yl]phenyl}imidazo[1,2-a]pyridine-3-carboxamide] |
| 596 | COc1cccc(F)c1-c1noc(-c2ccc(C)c(NC(=O)c3cnc4ccccn34)c2)n1 [F40, N-{5-[3-(2-fluoro-6-methoxyphenyl)-1,2,4-oxadiazol-5-yl]-2-methylphenyl}imidazo[1,2-a]pyridine-3-carboxamide] |
| 101 | Cc1ccc(-c2nc(-c3ccccc3)no2)cc1NC(=O)c1cnc2ccccn12 [F46, N-[2-methyl-5-(3-phenyl-1,2,4-oxadiazol-5-yl)phenyl]imidazo[1,2-a]pyridine-3-carboxamide] |
| 1080 | Cc1ccc(-c2noc(-c3ccc(N4CCOCC4)cc3)n2)cc1NC(=O)c1cnc2ccccn12 [F65, N-(2-methyl-5-{5-[4-(morpholin-4-yl)phenyl]-1,2,4-oxadiazol-3-yl}phenyl)imidazo[1,2-a]pyridine-3-carboxamide] |
| 340 | Cc1ccc(-c2noc(CCc3nccn3C)n2)cc1NC(=O)c1cnc2ccccn12 [F56, N-(2-methyl-5-{5-[2-(1-methyl-1H-imidazol-2-yl)ethyl]-1,2,4-oxadiazol-3-yl}phenyl)imidazo[1,2-a]pyridine-3-carboxamide] |

same assay, conditions: Table 2; Mo7e cells stimulated with human recombinant SCF, 48 hours; 20% FBS instead of 1% FBS (values marked *)

| IC50 [nM] | SMILES |
| --- | --- |
| 850 | Cc1ccc(-c2nc(-c3ccc(C)c(NC(=O)c4cnc5ccccn45)c3)no2)cn1 [F50, N-{2-methyl-5-[5-(6-methylpyridin-3-yl)-1,2,4-oxadiazol-3-yl]phenyl}imidazo[1,2-a]pyridine-3-carboxamide] |
| 173 | Cc1ccc(-c2nc(-c3cccc(F)c3)no2)cc1NC(=O)c1cnc2ccccn12 [F36, N-{5-[3-(3-fluorophenyl)-1,2,4-oxadiazol-5-yl]-2-methylphenyl}imidazo[1,2-a]pyridine-3-carboxamide] |
| 192 | Cc1ccc(-c2nc(-c3cccnc3OCC(F)(F)F)no2)cc1NC(=O)c1cnc2ccccn12 [F38, N-(2-methyl-5-{3-[2-(2,2,2-trifluoroethoxy)pyridin-3-yl]-1,2,4-oxadiazol-5-yl}phenyl)imidazo[1,2-a]pyridine-3-carboxamide] |
| 196 | Cc1ccc(-c2noc(-c3ccccc3)n2)cc1NC(=O)c1cnc2ccccn12 [F47, N-[2-methyl-5-(5-phenyl-1,2,4-oxadiazol-3-yl)phenyl]imidazo[1,2-a]pyridine-3-carboxamide] |
| 815 | Cc1ccc(-c2noc(-c3ncccn3)n2)cc1NC(=O)c1cnc2ccccn12 [F48, N-{2-methyl-5-[5-(pyrimidin-2-yl)-1,2,4-oxadiazol-3-yl]phenyl}imidazo[1,2-a]pyridine-3-carboxamide] |
| 289 | Cc1ccc(-c2nc(Cc3ccccc3OC(F)(F)F)no2)cc1NC(=O)c1cnc2ccccn12 [F43, N-[2-methyl-5-(3-{[2-(trifluoromethoxy)phenyl]methyl}-1,2,4-oxadiazol-5-yl)phenyl]imidazo[1,2-a]pyridine-3-carboxamide] |
| 359 | Cc1ccc(-c2nc(-c3ccc(C(F)(F)F)cn3)no2)cc1NC(=O)c1cnc2ccccn12 [F30, N-(2-methyl-5-{3-[5-(trifluoromethyl)pyridin-2-yl]-1,2,4-oxadiazol-5-yl}phenyl)imidazo[1,2-a]pyridine-3-carboxamide] |
| 179 | Cc1ccc(-c2noc(-c3ccccc3N3CCOCC3)n2)cc1NC(=O)c1cnc2ccccn12 [F51, N-(2-methyl-5-{5-[2-(morpholin-4-yl)phenyl]-1,2,4-oxadiazol-3-yl}phenyl)imidazo[1,2-a]pyridine-3-carboxamide] |
| 205 | Cc1ccc(-c2nc(-c3ncccc3F)no2)cc1NC(=O)c1cnc2ccccn12 [F29, N-{5-[3-(3-fluoropyridin-2-yl)-1,2,4-oxadiazol-5-yl]-2-methylphenyl}imidazo[1,2-a]pyridine-3-carboxamide] |
| 139 | Cc1ccc(-c2nc(-c3cnccc3C)no2)cc1NC(=O)c1cnc2ccccn12 [F34, N-{2-methyl-5-[3-(4-methylpyridin-3-yl)-1,2,4-oxadiazol-5-yl]phenyl}imidazo[1,2-a]pyridine-3-carboxamide] |
